These are literature values, as cited in PMC8160438, “A Novel Heptapeptide, GPPGPAG Transfers to the Brain, and Ameliorates Memory Dysfunction and Dendritic Atrophy in Alzheimer’s Disease Model Mice” (Frontiers in Pharmacology, 2021).

The conditions of the data set: in vivo, cited from earlier work. The method, then: In Figure 6H, the mean value of GPPGPAG in the cerebral cortex is 2.748 μg/g of tissue at 180 min after p.o. administration of 500 mg/mouse. When 10 mg/kg GPPGPAG is applied per orally, the transferred amount of GPPGPAG in the brain is calculated as 0.598 pmol. […] Identification of the BBB transporting system for GPPGPAG should be done in future.

With Gly-Pro, the transport into brain result was “transported into brain”. For Tyr-Pro, the transport into brain entry is “transported into brain”. As for “RPRTRLHTHRNR-NH2 [12-amino acid peptide that crosses the blood-brain barrier]”, the “crossing of the blood-brain barrier” value (po) is reported as “crosses the blood-brain barrier (BBB) without digestion”.
